As usually defined, the IC50 is the midpoint of a concentration-inhibition curve.

In the experiment the test system is Human mast cells (CHMC). Kind of experiment: LD Tryptase release assay in CHMC (mast cell activation induced by FcγR cross-linking). The format is cell-based. To be noted: Homo sapiens, Mast cell, anti-IgG stimulation, activity of tryptase released upon degranulation. As for the experimental part: Compounds were assayed for inhibition of mast cell activation induced by FcγR cross-linking by measuring the activity of tryptase released upon degranulation as follows:
Human mast cells were cultured and differentiated from […] progenitor cell as described in U.S. Patent Publication No. 2005-234049, incorporated herein by reference. For example, 65 μL of various concentrations of the compound to be assayed were prepared in MT (137 mM NaCl, 2.7 mM KCl, 1.8 mM CaCl2, 1.0 mM MgCl2, 5.6 mM Glucose, 20 mM Hepes (pH 7.4), 0.1% Bovine Serum Albumin, (Sigma A4503)) containing 2% MeOH and 1% DMSO, or control buffer were added to duplicate 96-well V-bottom plates. Pelleted and re-suspended (in warm MT) CHMC cells (65 μL) were added to each 96-well plate, mixed and incubated for 1 hour at 37° C. 25 μl of 6× anti-IgG Rabbit anti-human IgG, Affinity purified (Bethyl Laboratories Cat No. A80-105A3) final concentration 1 μg/mL, was added to the test wells. MT (25 μL) was added to control wells. After a 60-minute incubation at 37° C., cells and cell debris were pelleted by centrifugation at 1000 rpm for 10 min and tryptase and leukotriene C4 levels were measured.
To measure tryptase levels, 25 μL of supernatant from each well was transferred to a fresh 96-well black bottom plate, to which 100 μL of fresh tryptase substrate solution [(Z-Ala-Lys-Arg-AMC2TFA; Enzyme Systems Products, #AMC-246)] 1:2000 in tryptase assay buffer [0.1 M Hepes (pH 7.5), 10% w/v Glycerol, 10 μM Heparin (Sigma H-4898) 0.01% NaN3] was added. After 30 minute incubation at room temperature, the optical density of the plates is measured at 355 nm/460 nm on a spectrophotometric plate reader. Table 1 provides the IC50 values.
Compounds of the disclosure were assayed for their ability to inhibit mast cell activation induced by FcγR cross-linking by measuring the activity of tryptase released upon degranulation. The IC50 values for the LD Tryptase assay are presented in Table 2, in which “0” is >100 μM; “A” is 1-100 μM; “B” is 0.5-1 μM; “C” is 0.1-0.5 μM; and “D” is less than 0.1 μM: […]
With `[2H]C1([2H])OC([2H])([2H])C([2H])([2H])N(c2ccc(Nc3ncc(F)c(Nc4ccc5c(n4)NC(=O)C(C)(C)O5)n3)cc2)C1([2H])[2H]` [Compound 131, N4-(2,2-dimethyl-3,4-dihydro-3-oxo-2H-pyrido[3,2-b][1,4]oxazin-6-yl)-5-fluoro-N2-[4-(2,2,3,3,5,5,6,6-d8-morpholino)phenyl]-2,4-pyrimidinediamine], the 50% inhibitory concentration (IC50) is less than 100 nM.
On to `CC1(C)Oc2ccc(Nc3nc(Nc4ccc(N5CCS(=O)(=O)CC5)cc4)ncc3F)nc2NC1=O` [Compound 149, N4-(2,2-dimethyl-3,4-dihydro-3-oxo-2H-pyrido[3,2-b][1,4]oxazin-6-yl)-5-fluoro-N2-[4-(1,1-dioxidothiomorpholin-4-yl)phenyl]-2,4-pyrimidinediamine], for which the IC50 is less than 100 nM.
Next, `O=C1COc2ccc(Nc3nc(Nc4cnc(N5CCOCC5)c(F)c4)ncc3F)nc2N1` [Compound 16, N4-(3,4-dihydro-3-oxo-2H-pyrido[3,2-b][1,4]oxazin-6-yl)-5-fluoro-N2-[5-fluoro-6-morpholinopyridin-3-yl]-2,4-pyrimidinediamine]: 100 to 500 nM; `CC1(C)Oc2ccc(Nc3nc(Nc4ccc(N5CCC6(CCCO6)CC5)cc4)ncc3F)nc2NC1=O` [Compound 156, N4-(2,2-dimethyl-3,4-dihydro-3-oxo-2H-pyrido[3,2-b][1,4]oxazin-6-yl)-5-fluoro-N2-[4-(1-oxa-8-azaspiro[4.5]decan-8-yl)phenyl]-2,4-pyrimidinediamine]: 100 to 500 nM; `Cc1cc(Nc2ncc(F)c(Nc3ccc4c(n3)NC(=O)C(C)(C)O4)n2)ccc1N1CCOCC1` [Compound 23, N4-(2,2-dimethyl-3,4-dihydro-3-oxo-2H-pyrido[3,2-b][1,4]oxazin-6-yl)-5-fluoro-N2-[3-methyl-4-morpholinophenyl]-2,4-pyrimidinediamine]: less than 100 nM.
Next, `Cc1cc(Nc2ncc(F)c(Nc3ccc4c(n3)NC(=O)C(C)(C)O4)n2)cnc1N1CCOC(C)(C)C1` [Compound 14, N4-(2,2-dimethyl-3,4-dihydro-3-oxo-2H-pyrido[3,2-b][1,4]oxazin-6-yl)-5-fluoro-N2-[5-methyl-6-(2,2-dimethylmorpholino)pyridin-3-yl]-2,4-pyrimidinediamine]: 500 to 1000 nM.
Consider `CC1(C)CN(c2ncc(Nc3ncc(F)c(Nc4ccc5c(n4)NC(=O)CO5)n3)cc2F)CCO1` [Compound 17, N4-(3,4-dihydro-3-oxo-2H-pyrido[3,2-b][1,4]oxazin-6-yl)-5-fluoro-N2-[5-fluoro-6-(2,2-dimethylmorpholino)pyridin-3-yl]-2,4-pyrimidinediamine], for which the half-maximal inhibitory concentration (IC50) fell in the range of 100 to 500 nM.
The value for `CC(C)[C@H]1COC(=O)N1c1ccc(Nc2ncc(F)c(Nc3ccc4c(n3)NC(=O)C(C)(C)O4)n2)cn1` [Compound 74, N4-(2,2-dimethyl-3,4-dihydro-3-oxo-2H-pyrido[3,2-b][1,4]oxazin-6-yl)-5-fluoro-N2-[6-((4S)-4-isopropyl-2-oxooxazolidin-3-yl)pyridin-3-yl]-2,4-pyrimidinediamine] was 1000 to 100000 nM; that for `CC1(C)Oc2ccc(Nc3nc(Nc4ccc(N5CCO[C@@H](CO)C5)cc4)ncc3F)nc2NC1=O` [Compound 128, N4-(2,2-dimethyl-3,4-dihydro-3-oxo-2H-pyrido[3,2-b][1,4]oxazin-6-yl)-5-fluoro-N2-[4-((2-hydroxymethyl)morpholino)phenyl]-2,4-pyrimidinediamine] was less than 100 nM; that for `O=C1COc2ccc(Nc3nc(Nc4ccc(N5CCCCC5)cc4)ncc3F)nc2N1` [Compound 83, N4-(3,4-dihydro-3-oxo-2H-pyrido[3,2-b][1,4]oxazin-6-yl)-5-fluoro-N2-[4-(piperidin-1-yl)phenyl]-2,4-pyrimidinediamine] was 100 to 500 nM.
The value for `CC1(C)Oc2ccc(Nc3nc(Nc4ccc(N5CCC(N6CCOCC6)C5)nc4)ncc3F)nc2NC1=O` (stereo not drawn) [Compound 67, N4-(2,2-dimethyl-3,4-dihydro-3-oxo-2H-pyrido[3,2-b][1,4]oxazin-6-yl)-5-fluoro-N2-[6-(3-morpholinopyrrolidin-1-yl)pyridin-3-yl]-2,4-pyrimidinediamine] was 100 to 500 nM.
The value for `Cc1cc(Nc2ncc(F)c(Nc3ccc4c(n3)NC(=O)C(C)(C)O4)n2)ccc1N1C[C@@H]2C[C@H]1CO2` [Compound 24, N4-(2,2-dimethyl-3,4-dihydro-3-oxo-2H-pyrido[3,2-b][1,4]oxazin-6-yl)-5-fluoro-N2-[3-methyl-4-((1S,4S)-5-oxa-2-aza-bicyclo[2.2.1]heptan-2-yl)phenyl]-2,4-pyrimidinediamine] was less than 100 nM.
Take `Cc1cc(Nc2ncc(F)c(Nc3ccc4c(n3)NC(=O)C(C)(C)O4)n2)cnc1N1CCOCC1` [Compound 13, N4-(2,2-dimethyl-3,4-dihydro-3-oxo-2H-pyrido[3,2-b][1,4]oxazin-6-yl)-5-fluoro-N2-[5-methyl-6-morpholinopyridin-3-yl]-2,4-pyrimidinediamine]: the IC50 is less than 100 nM.
With `COCCN(C)c1ccc(Nc2ncc(F)c(Nc3ccc4c(n3)NC(=O)CO4)n2)cn1` [Compound 98], the IC50 was 500 to 1000 nM.
Next, `C[C@@H]1CN(c2ccc(Nc3ncc(F)c(Nc4ccc5c(n4)NC(=O)C(C)(C)O5)n3)cc2)C[C@H](C)O1` [Compound 36, rac-Cis-N4-(2,2-dimethyl-3,4-dihydro-3-oxo-2H-pyrido[3,2-b][1,4]oxazin-6-yl)-5-fluoro-N2-[4-(2,6-dimethylmorpholino)phenyl]-2,4-pyrimidinediamine]: 100 to 500 nM.
The value for `CN1CCN(c2ccc(Nc3ncc(F)c(Nc4ccc5c(n4)NC(=O)C(C)(C)O5)n3)cn2)CC1` [Compound 18, N4-(2,2-dimethyl-3,4-dihydro-3-oxo-2H-pyrido[3,2-b][1,4]oxazin-6-yl)-5-fluoro-N2-[6-(4-methylpiperazin-1-yl)pyridin-3-yl]-2,4-pyrimidinediamine] was 500 to 1000 nM.
The value for `CC(C)Oc1cc(Nc2ncc(F)c(Nc3ccc4c(n3)NC(=O)C(C)(C)O4)n2)ccc1N1CCOCC1` [Compound 45, N4-(2,2-dimethyl-3,4-dihydro-3-oxo-2H-pyrido[3,2-b][1,4]oxazin-6-yl)-5-fluoro-N2-[3-(2-propoxy)-4-morpholinophenyl]-2,4-pyrimidinediamine] was 1000 to 100000 nM.
Turning to `CCOC1CCN(c2ccc(Nc3ncc(F)c(Nc4ccc5c(n4)NC(=O)C(C)(C)O5)n3)cn2)CC1` [Compound 54, N4-(2,2-dimethyl-3,4-dihydro-3-oxo-2H-pyrido[3,2-b][1,4]oxazin-6-yl)-5-fluoro-N2-[6-(4-ethoxypiperidin-1-yl)pyridin-3-yl]-2,4-pyrimidinediamine], the IC50 is 1000 to 100000 nM.
Take `CC1(C)Oc2ccc(Nc3nc(Nc4ccc(N5CCO[C@H](CCO)C5)cc4)ncc3F)nc2NC1=O` (stereo in doubt) [Compound 126, N4-(2,2-dimethyl-3,4-dihydro-3-oxo-2H-pyrido[3,2-b][1,4]oxazin-6-yl)-5-fluoro-N2-[4-((2-hydroxyethyl)morpholino)phenyl]-2,4-pyrimidinediamine]: the 50% inhibitory concentration (IC50) lay in the range of 100 to 500 nM.
With `C[C@H]1CN(c2ccc(Nc3ncc(F)c(Nc4ccc5c(n4)NC(=O)CO5)n3)cn2)[C@@H](C)CO1` (racemic) [Compound 104, rac-N4-(3,4-dihydro-3-oxo-2H-pyrido[3,2-b][1,4]oxazin-6-yl)-N2-[6-(2,5-dimethylmorpholino)pyridin-3-yl]-5-fluoro-2,4-pyrimidinediamine], the 50% inhibitory concentration (IC50) fell in the range of 100 to 500 nM.
The value for `C[C@@H]1COCCN1c1ccc(Nc2ncc(F)c(Nc3ccc4c(n3)NC(=O)C(C)(C)O4)n2)cc1` [Compound 81] was 100 to 500 nM.

Source of the values: patent publication US8618095B2 (Rigel Pharmaceuticals, Inc., priority 2010, dated 2013).
